Results published in paper PMC10828444, “Selective inhibition of overactive warmth-sensitive Ca^2+-permeable TRPV3 channels by antispasmodic agent flopropione for alleviation of skin inflammation” (The Journal of Biological Chemistry, 2023).
Residue numbers refer to the chain shown, from its start.

Experiments:
Assay type in all cases: cell-based
[1] = molecular target: T1, hTRPV3 I505A mutant (Homo sapiens, UniProt Q8NET8, I505A); assay: Whole-cell recordings of TRPV3 I505A mutant; conditions: 100 μM flopropione, 2-APB
T1 construct: expressed in transfected cells; host or cells: HEK293
T1 sequence (Q8NET8 1-790 I505A): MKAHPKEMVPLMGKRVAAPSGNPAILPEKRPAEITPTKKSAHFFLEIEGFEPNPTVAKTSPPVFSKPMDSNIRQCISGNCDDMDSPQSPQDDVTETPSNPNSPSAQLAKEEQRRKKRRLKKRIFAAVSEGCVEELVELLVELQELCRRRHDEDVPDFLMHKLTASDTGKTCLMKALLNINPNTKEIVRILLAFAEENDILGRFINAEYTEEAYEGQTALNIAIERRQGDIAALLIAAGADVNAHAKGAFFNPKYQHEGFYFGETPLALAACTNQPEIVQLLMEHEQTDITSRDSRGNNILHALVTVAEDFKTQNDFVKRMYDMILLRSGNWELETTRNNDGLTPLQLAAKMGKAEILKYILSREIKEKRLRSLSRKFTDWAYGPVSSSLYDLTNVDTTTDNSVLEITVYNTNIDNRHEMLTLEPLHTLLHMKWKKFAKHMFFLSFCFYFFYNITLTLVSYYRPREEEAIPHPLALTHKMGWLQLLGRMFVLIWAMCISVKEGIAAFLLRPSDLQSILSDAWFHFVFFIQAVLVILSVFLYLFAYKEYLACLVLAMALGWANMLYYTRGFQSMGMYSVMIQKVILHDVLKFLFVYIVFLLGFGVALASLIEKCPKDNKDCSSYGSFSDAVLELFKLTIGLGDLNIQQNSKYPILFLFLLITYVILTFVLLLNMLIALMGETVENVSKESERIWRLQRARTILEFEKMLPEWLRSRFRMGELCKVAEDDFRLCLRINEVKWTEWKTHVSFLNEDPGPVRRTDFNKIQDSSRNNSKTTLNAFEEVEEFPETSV
Description: (§1) HEK293 cells were cultured in Dulbecco’s modified Eagle’s medium (DMEM, Gibco) containing 4.5 g/L D-glucose supplemented with 10% fetal bovine serum based at 37 °C with 5% CO2. For whole-cell patch-clamp recordings, cells were grown in glass coverslips for 24 h before transient transfections with 3000 ng cDNAs of hTRPV3 (gene accession number BC104866.1), hTRPV1 (accession number NM_080704.3), mTRPV2 (accession number NM_011706.2), hTRPV4 (accession number NM_021625.5), hTRPA1 (accession number NM_007332.3) and hTRPM8 (accession number NM_024080.5) into HEK293 cells grown in a 35-mm cell culture dish using Lipofectamine 2000 (Invitrogen). Cells were used 18 ∼ 24 h after transfection. All WT or mutant hTRPV3 plasmids were validated by DNA sequencing.
(§2) Whole-cell patch clamp recordings of wild-type and mutants were carried out at room temperature using the HEKA EPC10 amplifier powered by PatchMaster software (HEKA) or MultiClamp 700B amplifier driven by Clampex 11.0.3 software. The borosilicate glass pipettes were pulled and fire-polished to 3∼6 MΩ using a DMZ universal electrode puller (Zeitz-Instruments, GmbH). Pipette solution and bath solution both contained (in mM): 130 NaCl, three HEPES, and 0.2 EDTA (pH = 7.4). Cell membrane potential was held at 0 mV, currents were recorded at a voltage ramp from −100 to +100 mV for 500-ms and analyzed at ±80 mV.

[2] = molecular target: T2, hTRPV3 single channel (Homo sapiens, UniProt Q8NET8); assay: Inside-out single-channel recordings of TRPV3 in HEK293 cells; conditions: 50 μM flopropione in presence of 30 μM 2-APB, −60 mV
T2 construct: expressed in transfected cells; host or cells: HEK293
T2 sequence (Q8NET8 1-790): T1 sequence (Q8NET8 1-790 I505A) with A505I
Text: For single-channel recordings, borosilicate glass pipettes were pulled from borosilicate glass capillaries and fire-polished to the resistance between 6 and 10 MΩ using a DMZ universal electrode puller (Zeitz-Instruments, GmbH). For inside-out single-channel recordings, both pipette and external solutions contained (in mM): 130 NaCl, three HEPES, and 0.2 EDTA (pH = 7.4). Membrane potential was clamped at −60 mV and currents were digitized at 10 kHz and filtered at 2 kHz.

[3] = molecular target: T3, hTRPV4 (Homo sapiens, UniProt Q9HBA0); assay: Whole-cell patch-clamp of TRPV4 currents activated by GSK1016790A in HEK293 cells; conditions: flopropione 100 μM, GSK1016790A 0.1 μM
T3 construct: expressed in transfected cells; host or cells: HEK293
Description: as §1, §2

[4] = molecular target: T4, hTRPV1 (Homo sapiens, UniProt Q8NER1); assay: Whole-cell patch-clamp of TRPV1 currents evoked by capsaicin in HEK293 cells; conditions: flopropione 100 μM, 1 μM capsaicin
T4 construct: expressed in transfected cells; host or cells: HEK293
Description: as §1, §2

[5] = molecular target: T5, hTRPA1 (Homo sapiens, UniProt O75762); assay: Whole-cell patch-clamp of TRPA1 currents activated by AITC in HEK293 cells; conditions: flopropione 100 μM, AITC 300 μM
T5 construct: expressed in transfected cells; host or cells: HEK293
Description: as §1, §2

T3 sequence (Q9HBA0 whole entry): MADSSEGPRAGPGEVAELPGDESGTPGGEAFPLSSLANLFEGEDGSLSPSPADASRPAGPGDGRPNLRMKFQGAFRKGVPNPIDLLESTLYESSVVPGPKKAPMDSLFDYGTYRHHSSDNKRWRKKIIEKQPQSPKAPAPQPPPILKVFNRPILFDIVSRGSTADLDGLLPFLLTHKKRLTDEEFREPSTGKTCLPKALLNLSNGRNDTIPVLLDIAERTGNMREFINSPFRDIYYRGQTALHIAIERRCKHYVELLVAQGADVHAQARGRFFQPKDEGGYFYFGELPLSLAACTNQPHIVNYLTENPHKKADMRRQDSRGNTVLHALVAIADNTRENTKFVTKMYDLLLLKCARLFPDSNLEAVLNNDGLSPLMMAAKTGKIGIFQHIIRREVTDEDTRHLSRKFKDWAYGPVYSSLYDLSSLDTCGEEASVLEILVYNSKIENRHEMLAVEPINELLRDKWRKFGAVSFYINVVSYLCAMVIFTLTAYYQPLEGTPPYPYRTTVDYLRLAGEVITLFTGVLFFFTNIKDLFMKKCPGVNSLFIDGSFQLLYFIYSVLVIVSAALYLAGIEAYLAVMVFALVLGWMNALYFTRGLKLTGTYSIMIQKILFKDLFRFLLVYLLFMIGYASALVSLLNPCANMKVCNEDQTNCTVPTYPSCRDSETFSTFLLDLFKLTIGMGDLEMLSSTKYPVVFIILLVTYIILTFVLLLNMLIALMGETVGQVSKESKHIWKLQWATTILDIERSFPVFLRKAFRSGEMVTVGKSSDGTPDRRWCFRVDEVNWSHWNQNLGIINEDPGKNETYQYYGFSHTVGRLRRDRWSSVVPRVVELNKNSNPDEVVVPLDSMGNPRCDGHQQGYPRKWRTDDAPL
T5 sequence (O75762 whole entry): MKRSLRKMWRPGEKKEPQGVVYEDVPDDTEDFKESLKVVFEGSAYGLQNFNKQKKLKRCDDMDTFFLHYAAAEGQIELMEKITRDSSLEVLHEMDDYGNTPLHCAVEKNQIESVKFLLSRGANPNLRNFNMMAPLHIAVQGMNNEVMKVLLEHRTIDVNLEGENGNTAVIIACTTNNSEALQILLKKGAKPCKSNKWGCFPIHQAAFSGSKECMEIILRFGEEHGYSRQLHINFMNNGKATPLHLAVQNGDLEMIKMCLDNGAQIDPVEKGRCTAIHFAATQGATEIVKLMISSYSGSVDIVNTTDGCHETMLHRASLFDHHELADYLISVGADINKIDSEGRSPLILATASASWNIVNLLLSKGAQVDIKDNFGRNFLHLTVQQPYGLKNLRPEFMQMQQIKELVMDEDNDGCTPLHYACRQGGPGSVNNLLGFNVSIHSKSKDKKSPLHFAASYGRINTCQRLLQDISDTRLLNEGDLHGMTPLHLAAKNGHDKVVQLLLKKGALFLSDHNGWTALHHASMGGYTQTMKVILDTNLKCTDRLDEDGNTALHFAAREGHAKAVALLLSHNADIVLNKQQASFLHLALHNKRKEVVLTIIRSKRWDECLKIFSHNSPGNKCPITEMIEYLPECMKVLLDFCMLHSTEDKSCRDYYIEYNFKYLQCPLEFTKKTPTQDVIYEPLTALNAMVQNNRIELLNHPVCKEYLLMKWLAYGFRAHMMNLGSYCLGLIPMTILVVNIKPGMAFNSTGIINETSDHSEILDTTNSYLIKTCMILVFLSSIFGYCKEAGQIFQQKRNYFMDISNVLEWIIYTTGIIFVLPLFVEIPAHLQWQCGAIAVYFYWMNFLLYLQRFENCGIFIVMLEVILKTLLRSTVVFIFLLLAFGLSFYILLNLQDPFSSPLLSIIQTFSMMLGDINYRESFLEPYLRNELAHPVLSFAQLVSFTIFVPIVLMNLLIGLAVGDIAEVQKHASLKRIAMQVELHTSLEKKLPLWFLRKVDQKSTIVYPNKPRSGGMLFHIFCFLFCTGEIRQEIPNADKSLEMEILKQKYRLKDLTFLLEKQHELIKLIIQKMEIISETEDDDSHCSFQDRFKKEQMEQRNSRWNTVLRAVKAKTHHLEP
T4 sequence (Q8NER1 whole entry): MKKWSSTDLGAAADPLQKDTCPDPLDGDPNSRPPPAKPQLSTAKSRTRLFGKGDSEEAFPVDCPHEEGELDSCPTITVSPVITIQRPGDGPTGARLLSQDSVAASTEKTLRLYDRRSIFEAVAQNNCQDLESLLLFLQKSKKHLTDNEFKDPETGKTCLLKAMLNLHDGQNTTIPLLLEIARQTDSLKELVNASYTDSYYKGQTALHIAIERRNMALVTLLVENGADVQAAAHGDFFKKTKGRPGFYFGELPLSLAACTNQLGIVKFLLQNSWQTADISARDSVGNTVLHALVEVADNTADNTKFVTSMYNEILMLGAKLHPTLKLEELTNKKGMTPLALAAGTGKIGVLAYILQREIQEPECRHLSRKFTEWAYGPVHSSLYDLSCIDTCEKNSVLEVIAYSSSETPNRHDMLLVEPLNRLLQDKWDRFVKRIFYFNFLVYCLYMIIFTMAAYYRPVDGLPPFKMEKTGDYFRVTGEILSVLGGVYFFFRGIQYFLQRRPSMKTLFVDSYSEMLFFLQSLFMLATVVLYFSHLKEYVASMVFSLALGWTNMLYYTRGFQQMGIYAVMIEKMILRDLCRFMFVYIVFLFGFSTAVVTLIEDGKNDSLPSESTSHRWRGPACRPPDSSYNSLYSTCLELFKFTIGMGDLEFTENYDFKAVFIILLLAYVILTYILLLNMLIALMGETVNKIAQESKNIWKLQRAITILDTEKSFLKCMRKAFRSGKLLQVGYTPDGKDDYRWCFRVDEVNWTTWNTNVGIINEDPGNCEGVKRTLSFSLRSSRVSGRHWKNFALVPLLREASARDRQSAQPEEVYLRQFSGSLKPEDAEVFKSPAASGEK

CCC(=O)c1c(O)cc(O)cc1O [flopropione]
effect of I505 mutation on inhibition by flopropione [1]: partially reduced TRPV3 inhibition | unitary single channel conductance [2]: 167.1 ± 9.0 pS | single-channel open probability ([2]; n = 4): 0.17 ± 0.06 | effect on TRPV4 currents [3]: no effect | effect on TRPV1 currents [4]: no effect | effect on TRPA1 currents [5]: no effect
